# Source: US7572818B2, “2-pyridylethylbenzamide derivative” (Bayer Cropscience S.A., priority 2002, dated 2009)
# Experiments:
# Septoria tritici = assay: In vivo test of activity on Septoria tritici (wheat septoria disease); conditions: 500 g/ha, preventive spray 24 h before inoculation
# Description: In Vivo Test of Activity on Septoria tritici (Wheat Septoria Disease
# (§1) An aqueous solution of the active material to be tested is prepared at a concentration of 2 g/l by grinding in solution 1 or solution 2:
# (§2) • Water • Tween 80 diluted to 10% in water: 5 μl/mg of active material • Clay in a sufficient amount for active material+clay to equal 100 mg; Solution 2
# (§3) Concentrated solution containing surfactants and adjuvants conventionally used: 200 μl/mg of active material.
# (§4) The aqueous solution is diluted with water so as to obtain the desired concentration.
# Wheat plants of the Scipion variety are sown in a 50/50 pozzolan/peat substrate and maintained at 12° C. The treatment is carried out at the 1-leaf stage (10 cm) by spraying the aqueous suspension. The untreated control plants are sprayed with water.
# 24 hours after treatment, the plants are inoculated by spraying a solution of Septoria tritici spores (500 000 spores/ml) from a 7-day culture.
# The wheat plantlets are then maintained at 18-20° C. in a humid atmosphere for 72 hours, and then at 90% relative humidity. The effectiveness of the products is evaluated relative to the control plants, 21 to 28 days after the contamination.
# (§5) The effectiveness of the molecules is estimated, at 500 g/ha, 250 g/ha or 330 ppm, by the percentage of control relative to untreated plants. Under these conditions, good effectiveness is defined as more than 80% effectiveness. Average effectiveness is defined as an effectiveness between 50 and 80%. Poor effectiveness is defined as an effectiveness between 10 and 50% and zero effectiveness is defined as less than 10% effectiveness.
# Botrytis cinerea = assay: In vivo test of activity on Botrytis cinerea on cucumber; conditions: preventive spray 24 h before inoculation
# Description: In Vivo Test of Activity on Botrytis cinerea on Cucumber
# as §1, §2, §3, §4
# Cucumbers of the Marketer variety are sown in a 50/50 pozzolan/peat substrate and maintained at 18-22° C. The treatment is carried out by spraying the aqueous suspension. The untreated control plants are sprayed with water.
# 24 hours after treatment, the plants are inoculated by spraying a solution of Botrytis cinerea spores (150 000 spores/ml) originating from a 15-day culture.
# The cucumber plants are then maintained at 11-15° C. in a humid atmosphere. The effectiveness of the products is evaluated relative to the control plants after seven to eight days of incubation.
# as §5
# Alternaria brassicae = assay: In vivo test of activity on Alternaria brassicae (crucifer black spot) on radish; conditions: preventive spray 24 h before inoculation
# Description: In Vivo Test of Activity on Alternaria brassicae (Crucifer Black Spot)
# as §1, §2, §3, §4
# Radishes of the Pernot variety are sown in a 50/50 pozzolan/peat substrate and maintained at 18-22° C. The treatment is carried out by spraying the aqueous suspension. The untreated control plants are sprayed with water. 24 hours after treatment, the plants are inoculated by spraying a solution of Alternaria brassicae spores (40 000 spores/ml) originating from a 12-day culture.
# The radish plants are then maintained at 18-20° C. in a humid atmosphere. The effectiveness of the products is evaluated relative to the control plants after seven to eight days of incubation.
# as §5
# Pyrenophora teres = assay: In vivo test of activity on Pyrenophora teres (barley net blotch); conditions: preventive spray 24 h before inoculation
# Description: In Vivo Test of Activity on Pyrenophora teres (Barley Net Blotch)
# as §1, §2, §3, §4
# Barley plants of the Express variety are sown in a 50/50 pozzolan/peat substrate and maintained at 12° C. The treatment is carried out at the 1-leaf stage (10 cm) by spraying the aqueous suspension. The untreated control plants are sprayed with water.
# 24 hours after treatment, the plants are inoculated by spraying a solution of Pyrenophora teres spores (10 000 spores/ml) originating from a 10-day culture.
# The barley plants are then maintained at 18° C. in a humid atmosphere. The effectiveness of the products is evaluated relative to the control plants after eight to fifteen days of incubation.
# as §5
# [1] = Botrytis cinerea, topical, 250 g/ha, read-out: effectiveness (percentage of control relative to untreated plants)
smiles,measurement,setting,value
CCCc1ccc(C(=O)NCCc2ncc(C(F)(F)F)cc2Cl)cc1 [Compound A-22],effectiveness (percentage of control relative to untreated plants),Septoria tritici,good to average
O=C(NCCc1ncc(C(F)(F)F)cc1Cl)c1cc(F)ccc1C(F)(F)F [Compound A-172],effectiveness (percentage of control relative to untreated plants),Botrytis cinerea; 330 ppm,good to average
O=C(NCCc1ncc(C(F)(F)F)cc1Cl)c1ccccc1OC(F)F [Compound A-187],effectiveness (percentage of control relative to untreated plants),Alternaria brassicae; 330 ppm,good to average
same,effectiveness (percentage of control relative to untreated plants),Botrytis cinerea; 330 ppm,good to average
same,effectiveness (percentage of control relative to untreated plants),Pyrenophora teres; 330 ppm,good to average
"CNC(=O)C(Cc1ncc(C(F)(F)F)cc1Cl)NC(=O)c1ccc(-c2ccccc2)cc1 (stereo not shown) [compound 316, N-{1-methylcarbamoyl-2-[3-chloro-5-(trifluoromethyl)-2-pyridinyl]ethyl}-4-phenylbenzamide, reference compound]",effectiveness (percentage of control relative to untreated plants),Alternaria brassicae; 250 g/ha,poor (Poor effectiveness is defined as an effectiveness between 10 and 50%)
same,pest or weed control at 250 g/ha,Botrytis cinerea; [1],< 10%
COc1ccc(C(=O)NCCc2ncc(C(F)(F)F)cc2Cl)cc1 [Compound A-16],effectiveness (percentage of control relative to untreated plants),Septoria tritici,good to average
O=C(NCCc1ncc(C(F)(F)F)cc1Cl)c1ccc(Cl)cc1Cl [Compound A-6],effectiveness (percentage of control relative to untreated plants),Alternaria brassicae; 500 g/ha,good to average
same,effectiveness (percentage of control relative to untreated plants),Pyrenophora teres; 500 g/ha,good to average
same,effectiveness (percentage of control relative to untreated plants),Septoria tritici,good to average
"CCNC(=O)C(Cc1ncc(C(F)(F)F)cc1Cl)NC(=O)c1cccc([N+](=O)[O-])c1 (stereo not shown) [compound 307, N-{1-ethylcarbamoyl-2-[3-chloro-5-(trifluoromethyl)-2-pyridinyl]ethyl}-3-nitrobenzamide, reference compound]",effectiveness (percentage of control relative to untreated plants),Alternaria brassicae; 250 g/ha,zero (zero effectiveness is defined as less than 10% effectiveness)
same,pest or weed control at 250 g/ha,Botrytis cinerea; [1],< 10%
CCc1ccc(C(=O)NCCc2ncc(C(F)(F)F)cc2Cl)cc1 [Compound A-21],effectiveness (percentage of control relative to untreated plants),Septoria tritici,good to average
O=C(NCCc1ncc(C(F)(F)F)cc1Cl)c1c(F)cccc1I [Compound A-174],effectiveness (percentage of control relative to untreated plants),Alternaria brassicae; 330 ppm,good to average
same,effectiveness (percentage of control relative to untreated plants),Botrytis cinerea; 330 ppm,good to average
same,effectiveness (percentage of control relative to untreated plants),Pyrenophora teres; 330 ppm,good to average
Cc1ccccc1C(=O)NCCc1ncc(C(F)(F)F)cc1Cl [Compound A-9],effectiveness (percentage of control relative to untreated plants),Alternaria brassicae; 500 g/ha,good to average
same,effectiveness (percentage of control relative to untreated plants),Botrytis cinerea; 500 g/ha,good to average
same,effectiveness (percentage of control relative to untreated plants),Pyrenophora teres; 500 g/ha,good to average
O=C(NCCc1ncc(C(F)(F)F)cc1Cl)c1cc(F)ccc1Br [Compound A-175],effectiveness (percentage of control relative to untreated plants),Alternaria brassicae; 330 ppm,good to average
same,effectiveness (percentage of control relative to untreated plants),Botrytis cinerea; 330 ppm,good to average
O=C(NCCc1ncc(C(F)(F)F)cc1Cl)c1ccc(F)cc1F [Compound A-5],effectiveness (percentage of control relative to untreated plants),Pyrenophora teres; 500 g/ha,good to average
same,effectiveness (percentage of control relative to untreated plants),Septoria tritici,good to average
"CCNC(=O)C(Cc1ncc(C(F)(F)F)cc1Cl)NC(=O)c1ccccc1 (stereo not shown) [compound 304, N-{1-ethylcarbamoyl-2-[3-chloro-5-(trifluoromethyl)-2-pyridinyl]ethyl}-benzamide, reference compound]",pest or weed control at 250 g/ha,Botrytis cinerea; [1],< 10%
O=C(NCCc1ncc(C(F)(F)F)cc1Cl)c1ccccc1F [Compound A-4],effectiveness (percentage of control relative to untreated plants),Alternaria brassicae; 500 g/ha,good to average
same,effectiveness (percentage of control relative to untreated plants),Pyrenophora teres; 500 g/ha,good to average
same,effectiveness (percentage of control relative to untreated plants),Septoria tritici,good to average
"O=C(NCCc1ncc(C(F)(F)F)cc1Cl)c1c(Cl)cccc1Cl [N-{2-[3-chloro-5-(trifluoromethyl)-2-pyridinyl]-ethyl}-2,6-dichlorobenzamide, reference compound]",effectiveness (percentage of control relative to untreated plants),Alternaria brassicae; 250 g/ha,zero (zero effectiveness is defined as less than 10% effectiveness)
same,effectiveness (percentage of control relative to untreated plants),Alternaria brassicae; 330 ppm,poor (Poor effectiveness is defined as an effectiveness between 10 and 50%)
same,pest or weed control at 250 g/ha,Botrytis cinerea; [1],< 10%
same,pest or weed control at 330 ppm,"Botrytis cinerea; Botrytis cinerea, topical, 330 ppm, read-out: effectiveness (percentage of control relative to untreated plants)",< 10%
CCCCc1ccc(C(=O)NCCc2ncc(C(F)(F)F)cc2Cl)cc1 [Compound A-23],effectiveness (percentage of control relative to untreated plants),Septoria tritici,good to average
"CCNC(=O)C(Cc1ncc(C(F)(F)F)cc1Cl)NC(=O)c1ccc(Cl)cc1 (stereo not shown) [compound 306, N-{1-ethylcarbamoyl-2-[3-chloro-5-(trifluoromethyl)-2-pyridinyl]ethyl}-4-chlorobenzamide, reference compound]",pest or weed control at 250 g/ha,Botrytis cinerea; [1],< 10%
N#Cc1ccccc1C(=O)NCCc1ncc(C(F)(F)F)cc1Cl [Compound A-170],effectiveness (percentage of control relative to untreated plants),Alternaria brassicae; 330 ppm,good to average
same,effectiveness (percentage of control relative to untreated plants),Botrytis cinerea; 330 ppm,good to average
"CNC(=O)C(Cc1ncc(C(F)(F)F)cc1Cl)NC(=O)c1ccc(OC)cc1 (stereo not shown) [compound 315, N-{1-methylcarbamoyl-2-[3-chloro-5-(trifluoromethyl)-2-pyridinyl]ethyl}-4-methoxybenzamide, reference compound]",pest or weed control at 250 g/ha,Botrytis cinerea; [1],< 10%
"CCNC(=O)C(Cc1ncc(C(F)(F)F)cc1Cl)NC(=O)c1ccccc1Br (stereo not shown) [compound 310, N-{1-ethylcarbamoyl-2-[3-chloro-5-(trifluoromethyl)-2-pyridinyl]ethyl}-2-bromobenzamide, reference compound]",pest or weed control at 250 g/ha,Botrytis cinerea; [1],< 10%
O=C(NCCc1ncc(C(F)(F)F)cc1Cl)c1ccccc1I [Compound A-45],effectiveness (percentage of control relative to untreated plants),Alternaria brassicae; 250 g/ha,good to average
same,effectiveness (percentage of control relative to untreated plants),Alternaria brassicae; 330 ppm,good to average
same,effectiveness (percentage of control relative to untreated plants),Botrytis cinerea; 250 g/ha,good to average
same,effectiveness (percentage of control relative to untreated plants),Botrytis cinerea; 330 ppm,good to average
same,effectiveness (percentage of control relative to untreated plants),Pyrenophora teres; 250 g/ha,good to average
same,effectiveness (percentage of control relative to untreated plants),Pyrenophora teres; 330 ppm,good to average
"CNC(=O)C(Cc1ncc(C(F)(F)F)cc1Cl)NC(=O)c1ccccc1 (stereo not shown) [compound 314, N-{1-methylcarbamoyl-2-[3-chloro-5-(trifluoromethyl)2-pyridinyl]ethyl}-benzamide, reference compound]",pest or weed control at 250 g/ha,Botrytis cinerea; [1],< 10%
O=C(NCCc1ncc(C(F)(F)F)cc1Cl)c1ccc(F)cc1C(F)(F)F [Compound A-73],effectiveness (percentage of control relative to untreated plants),Alternaria brassicae; 250 g/ha,good to average
same,effectiveness (percentage of control relative to untreated plants),Alternaria brassicae; 330 ppm,good to average
same,effectiveness (percentage of control relative to untreated plants),Botrytis cinerea; 250 g/ha,good to average
same,effectiveness (percentage of control relative to untreated plants),Botrytis cinerea; 330 ppm,good to average
same,effectiveness (percentage of control relative to untreated plants),Pyrenophora teres; 250 g/ha,good to average
same,effectiveness (percentage of control relative to untreated plants),Pyrenophora teres; 330 ppm,good to average
O=C(NCCc1ncc(C(F)(F)F)cc1Cl)c1c(F)cccc1C(F)(F)F [Compound A-173],effectiveness (percentage of control relative to untreated plants),Alternaria brassicae; 250 g/ha,good to average
same,effectiveness (percentage of control relative to untreated plants),Alternaria brassicae; 330 ppm,good to average
same,effectiveness (percentage of control relative to untreated plants),Botrytis cinerea; 330 ppm,good to average
same,effectiveness (percentage of control relative to untreated plants),Pyrenophora teres; 330 ppm,good to average
O=C(NCCc1ncc(C(F)(F)F)cc1Cl)c1ccccc1Br [Compound A-46],effectiveness (percentage of control relative to untreated plants),Alternaria brassicae; 250 g/ha,good to average
same,effectiveness (percentage of control relative to untreated plants),Alternaria brassicae; 330 ppm,good to average
same,effectiveness (percentage of control relative to untreated plants),Botrytis cinerea; 250 g/ha,good to average
same,effectiveness (percentage of control relative to untreated plants),Botrytis cinerea; 330 ppm,good to average
same,effectiveness (percentage of control relative to untreated plants),Pyrenophora teres; 250 g/ha,good to average
same,effectiveness (percentage of control relative to untreated plants),Pyrenophora teres; 330 ppm,good to average
